The values that follow come from ChEMBL document CHEMBL5154837, “Discovery, optimization and evaluation of 1-(indolin-1-yl)ethan-1-ones as novel selective TRIM24/BRPF1 bromodomain inhibitors” (Eur J Med Chem, 2022).

Active and inactive are the calls of the source. No cut-off for these calls is given here.

Series [1] can be described thus: Apparent permeability of the compound across basolateral to apical side in human Caco-2 cells at 10 uM incubated for 120 mins assessed as drug recovery and measured by LC-MS/MS analysis. For orientation: Caco-2 cells form a polarised layer with tight junctions and transporters.
Series [2] can be described thus: Apparent permeability of the compound across apical to basolateral side in human Caco-2 cells at 10 uM incubated for 120 mins assessed as drug recovery and measured by LC-MS/MS analysis.
Series [3] is described as follows: Efflux ratio of apparent permeability from basolateral to apical side over apical to basolateral side in human Caco-2 cells at 10 uM incubated for 120 mins and measured by LC-MS/MS analysis.
A short description of series [4]: Apparent permeability of the compound across basolateral to apical side in human Caco-2 cells at 10 uM incubated for 120 mins and measured by LC-MS/MS analysis.
Series [5] is described as follows: Apparent permeability of the compound across apical to basolateral side in human Caco-2 cells at 10 uM incubated for 120 mins and measured by LC-MS/MS analysis.
The target in series [6] is T1, Transcription intermediary factor 1-alpha (Homo sapiens, UniProt O15164).
T1 sequence (O15164 whole entry): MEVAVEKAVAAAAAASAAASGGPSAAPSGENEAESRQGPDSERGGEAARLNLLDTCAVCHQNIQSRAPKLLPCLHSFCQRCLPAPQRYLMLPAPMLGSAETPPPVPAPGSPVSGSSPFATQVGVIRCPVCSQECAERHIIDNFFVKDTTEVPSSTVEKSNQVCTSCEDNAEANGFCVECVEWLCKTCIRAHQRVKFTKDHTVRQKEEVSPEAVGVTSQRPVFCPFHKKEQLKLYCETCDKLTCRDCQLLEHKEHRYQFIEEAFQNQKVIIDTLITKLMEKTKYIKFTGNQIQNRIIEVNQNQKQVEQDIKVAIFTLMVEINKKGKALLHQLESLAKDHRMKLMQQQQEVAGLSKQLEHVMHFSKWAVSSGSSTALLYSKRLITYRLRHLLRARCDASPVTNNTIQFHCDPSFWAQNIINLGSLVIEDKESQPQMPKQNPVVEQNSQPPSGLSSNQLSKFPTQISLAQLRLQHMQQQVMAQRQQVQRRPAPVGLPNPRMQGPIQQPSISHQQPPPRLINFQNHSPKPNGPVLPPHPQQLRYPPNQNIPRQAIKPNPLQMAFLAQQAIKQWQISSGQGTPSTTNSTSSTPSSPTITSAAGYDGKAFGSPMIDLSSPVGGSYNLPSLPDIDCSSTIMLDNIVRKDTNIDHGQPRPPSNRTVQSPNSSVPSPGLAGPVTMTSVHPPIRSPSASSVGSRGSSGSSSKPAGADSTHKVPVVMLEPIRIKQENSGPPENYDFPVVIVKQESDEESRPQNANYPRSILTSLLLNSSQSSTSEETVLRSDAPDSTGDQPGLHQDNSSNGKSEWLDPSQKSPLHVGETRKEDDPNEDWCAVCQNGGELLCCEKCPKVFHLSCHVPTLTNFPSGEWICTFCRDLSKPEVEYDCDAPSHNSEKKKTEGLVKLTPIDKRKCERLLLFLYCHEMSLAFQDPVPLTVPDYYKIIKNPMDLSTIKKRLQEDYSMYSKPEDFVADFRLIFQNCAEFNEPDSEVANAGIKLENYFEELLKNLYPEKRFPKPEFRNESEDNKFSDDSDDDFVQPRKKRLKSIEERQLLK
Briefly: Inhibition of TRIM24 (unknown origin) measured alphascreen assay.

Series [7] deals with CWR22R. Briefly: Downregulation of full-length AR mRNA expression in human 22Rv1 cells at 5 uM measured by RT-PCR analysis. Format: functional, cell-based.
Series [8] relates to LNCaP. Briefly: Suppression of PSA gene expression in human LNCaP cells assessed as mRNA level at 0.4 to 10 uM measured by luciferase gene reporter assay. Format: functional, cell-based. The note with it: dose 0.4-10 µM. Background: In a reporter assay the amount or activity of a reporter protein is the signal.
The test system of series [9] is CWR22R. The series can be described thus: Inhibition of clonogenicity in human 22Rv1 cells assessed as reduction in colony formation at 1 uM measured by crystal violet staining based analysis. In kind it is functional.
Series [10] relates to CWR22R. Briefly: Antitumor activity against human 22Rv1 cells xenografted in […] mouse assessed as tumor growth inhibition at 50 mg/kg, ip administered once daily for 21 days. Format: functional. Particulars: 22Rv1, 504 h, time 21 day, read-out: TGI. For orientation: In xenograft studies the graft and the host belong to different species.
Series [11] relates to CWR22R. The series can be described thus: Downregulation of KLK2 mRNA expression in human 22Rv1 cells at 5 uM measured by RT-PCR analysis. Format: functional, cell-based.
Series [12] relates to LNCaP. The series can be described thus: Antiproliferative activity against human LNCaP cells measured after 96 hrs by Cell Titer-Glo assay. Format: functional, cell-based.
The subject of series [13] is CWR22R. Briefly: Downregulation of PSA mRNA expression in human 22Rv1 cells at 5 uM measured by RT-PCR analysis. Format: functional, cell-based.
Series [14] has as its system CWR22R. The series can be described thus: Downregulation of C-MYC mRNA expression in human 22Rv1 cells at 5 uM measured by RT-PCR analysis. In kind it is functional, cell-based.
Series [15] relates to CWR22R. Briefly: Downregulation of TMPRSS2 mRNA expression in human 22Rv1 cells at 5 uM measured by RT-PCR analysis. In kind it is functional, cell-based.
The target of series [16] is T2, Peregrin (Homo sapiens, UniProt P55201).
T2 sequence (P55201 whole entry): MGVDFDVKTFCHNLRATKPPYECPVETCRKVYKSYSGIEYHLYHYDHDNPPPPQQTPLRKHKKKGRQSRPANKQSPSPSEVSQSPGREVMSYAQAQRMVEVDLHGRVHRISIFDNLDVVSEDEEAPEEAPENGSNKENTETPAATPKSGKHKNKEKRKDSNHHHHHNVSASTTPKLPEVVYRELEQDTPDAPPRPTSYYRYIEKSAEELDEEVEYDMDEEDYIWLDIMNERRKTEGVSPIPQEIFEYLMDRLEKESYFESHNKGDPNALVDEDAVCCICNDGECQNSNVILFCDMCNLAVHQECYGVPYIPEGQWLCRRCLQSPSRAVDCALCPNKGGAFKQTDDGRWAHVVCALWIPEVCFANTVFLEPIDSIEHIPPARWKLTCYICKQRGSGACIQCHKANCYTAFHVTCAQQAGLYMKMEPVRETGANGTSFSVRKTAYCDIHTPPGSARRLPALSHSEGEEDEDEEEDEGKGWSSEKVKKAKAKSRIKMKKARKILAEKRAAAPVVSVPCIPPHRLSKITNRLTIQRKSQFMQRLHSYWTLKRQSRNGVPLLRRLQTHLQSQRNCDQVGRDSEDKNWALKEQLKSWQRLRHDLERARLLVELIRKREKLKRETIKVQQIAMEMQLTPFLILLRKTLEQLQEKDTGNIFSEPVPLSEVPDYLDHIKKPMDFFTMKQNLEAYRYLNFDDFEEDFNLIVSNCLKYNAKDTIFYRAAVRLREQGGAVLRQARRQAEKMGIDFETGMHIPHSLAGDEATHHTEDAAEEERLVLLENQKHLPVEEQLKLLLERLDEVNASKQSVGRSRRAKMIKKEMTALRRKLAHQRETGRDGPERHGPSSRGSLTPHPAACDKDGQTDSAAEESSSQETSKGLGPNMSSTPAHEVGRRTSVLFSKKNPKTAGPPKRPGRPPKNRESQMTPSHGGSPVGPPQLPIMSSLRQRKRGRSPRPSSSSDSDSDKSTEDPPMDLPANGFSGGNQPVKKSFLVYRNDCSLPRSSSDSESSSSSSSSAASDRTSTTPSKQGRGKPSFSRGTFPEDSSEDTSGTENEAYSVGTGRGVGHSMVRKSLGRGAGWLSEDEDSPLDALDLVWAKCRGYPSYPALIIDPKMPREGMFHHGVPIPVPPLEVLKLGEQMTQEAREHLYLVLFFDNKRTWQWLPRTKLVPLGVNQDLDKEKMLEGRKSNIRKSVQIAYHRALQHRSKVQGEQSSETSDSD
The series can be described thus: Inhibition of BRPF1 (unknown origin) measured alphascreen assay.

For series [17], the system named is CWR22R. The series can be described thus: Downregulation of AR-V7 mRNA expression in human 22Rv1 cells at 5 uM measured by RT-PCR analysis. In kind it is functional, cell-based.
The subject of series [18] is LNCaP C4-2B. The series can be described thus: Inhibition of clonogenicity in human LNCaP C4-2B cells assessed as reduction in colony formation at 1 uM measured by crystal violet staining based analysis. In kind it is functional.
A short description of series [19]: Toxicity in […] mouse xenografted with human 22Rv1 cells assessed as body weight loss at 50 mg/kg, ip administered once daily for 21 days. Format: organism-based, CWR22R. Particulars: in vivo, 504 h, time 21 day.
The test system of series [20] is LNCaP C4-2B. The series can be described thus: Antiproliferative activity against human LNCaP C4-2B cells measured after 96 hrs by Cell Titer-Glo assay. Format: functional, cell-based.
Series [21] relates to CWR22R. Briefly: Antiproliferative activity against human 22Rv1 cells measured after 96 hrs by Cell Titer-Glo assay. In kind it is functional, cell-based. The note with it: 22Rv1, 96 h.

Take `CC(C)NCC(O)COc1ccc(CC(N)=O)cc1` (stereo not given) [ATENOLOL]: the recovery at 2 h, 10 µM in series [1] was determined as 92.3%; in series [2], 92.7%.

Turning to `C[C@H]1O[C@@H](O[C@H]2[C@@H](O)C[C@H](O[C@H]3[C@@H](O)C[C@H](O[C@H]4CC[C@@]5(C)[C@H](CC[C@@H]6[C@@H]5C[C@@H](O)[C@]5(C)[C@@H](C7=CC(=O)OC7)CC[C@]65O)C4)O[C@@H]3C)O[C@@H]2C)C[C@H](O)[C@@H]1O` [DIGOXIN], the efflux ratio at 2 h, 10 µM in [3] was determined as 9.69. Further, the apparent permeability from basolateral to apical (Papp B→A) at 2 h, 10 µM in [4] is 8.97 ×10⁻⁶ cm/s. Also, the recovery at 2 h, 10 µM in [1] stood at 98.6%; in series [2], 88.8%.

`CC(C)NCC(O)COc1cccc2ccccc12` (stereo not given) [PROPRANOLOL]: the Papp B→A at 2 h, 10 µM in series [4] was 20.9 ×10⁻⁶ cm/s. For the same compound, in [5], the Papp A→B at 2 h, 10 µM worked out at 22.1 ×10⁻⁶ cm/s. Also, the recovery at 2 h, 10 µM in series [1] came to 99.2%; in series [2], 78.5%.

Regarding `COc1ccc(C2CC2)cc1S(=O)(=O)Nc1ccc2c(c1)CCN2C(C)=O`, the IC50 in series [6] was determined as 980 nM; in series [12], 1070 nM; in series [16] it was 1160 nM; in series [20], 780 nM; in [21], 820 nM. Also, the result in [7], in [8], in [11], in [13], in [14] and in [15] was Active. In addition, the result in series [17] was Active. Also, the inhibition at 1 µM in series [9] and in [18] was less than 5% in each case. Besides, the inhibition in vivo at 50 mg/kg in [10] came out at 53%. Also, the Activity entry in series [19] was “Non-Toxic”.

`COc1cccc(NS(=O)(=O)c2ccc3c(c2)CCN3C(C)=O)c1` displayed an IC50 in series [6] of 38400 nM.

For the compound `CCCOc1cc(OCCCCN(C)C)cc(Oc2cc3c(cc2NS(=O)(=O)c2ccc(OC)c(OC)c2)n(C)c(=O)n3C)c1`, the IC50 was determined as 12200 nM in series [12], 13600 nM in series [20] and 10800 nM in [21].

A word on the efflux ratio: it is a quotient of directional permeabilities that is used to spot active efflux. What is called Papp B→A is the apparent permeability from the basolateral to the apical side of a cell layer. As usually defined, the Papp A→B is the apparent permeability from the apical to the basolateral side of a cell layer. Usually IC50 stands for the midpoint of a concentration-inhibition curve. The low end stands for greater potency in that assay, the high end for weaker potency in that assay. For orientation: inhibition means the share of the control response that was lost under treatment.
